{
  "source": "patent US9040712B2",
  "about": "“Thiadiazole analogs thereof and methods for treating SMN-deficiency-related-conditions” (NOVARTIS AG, priority 2013, dated 2015)",
  "system": "SMN protein",
  "assay": "cellular SMN ELISA (SMN protein elevation)",
  "assay_type": "cell-based",
  "details": "myoblast cell line derived from SMNdelta7 mouse model; 24 hours compound treatment; concentration range 100 pM-10 uM",
  "procedure": "A cellular SMN ELISA was used to measure the effects of low molecular weight compounds on SMN protein elevation. Cells from a myoblast cell line derived from the SMNdelta7 mouse model (kind gift from Steve Burden, NYU) were seeded into a 384-well plate at a density of 3000 cells/well and treated with compounds for 24 hours. ELISA capture plates were prepared by coating 384-well plates (Immulon 4HBX) with 0.5 ug/mL of anti-SMN mAb (BD Science, Catalog number 610647) at 4° C. overnight. The plates were washed 5 times with 110 uL of PBS-Tween (0.05% Tween-20, PBST), blocked with 100 uL of 1% BSA in PBST for 2 hours and washed (5 times) with 100 uL of PBST. After 24 hours of compound treatment cells were lysed in a modified RIPA-buffer, on ice for 1 hour. 20 uL of lysate and 20 uL of 1% BSA were then added to the ELISA capture plates and incubated at 4° C. overnight. Plates were washed (5 times) with PBST and then incubated with 1:100 dilution of primary rabbit anti-SMN polyclonal antibody (Santa cruz, Catalog number SC-15320) at room temperature for 1 hour and subsequently washed (5 times) with 110 uL of PBST. This was followed by addition of 1:100 Goat anti-Rabbit IgG-HRP linked (Cell Signaling, Catalog number 7074) secondary antibody for 1 hour. Plates were then washed with PBST and incubated with 40 uL TMB substrate (Cell Signaling, Catalog number 7004L) at room temperature for 1-10 minutes with shaking. The reaction was stopped by addition of 40 uL of stop solution (Cell signaling, Catalog number 7002L) and absorption was measured at 450 nm. Data was reported as fold activation over DMSO control and EC50. ELISA assay condition: compound concentration range 100 pM-10 uM.",
  "note": "Where a name gives a salt, the structure may show the parent alone.",
  "data": [
    {"smiles": "COc1cc(-c2ccc(=O)n(C)c2)ccc1-c1nnc(N(C)C2CC(C)(C)NC(C)(C)C2)s1", "note": "[Example 10, 5-(3-Methoxy-4-(5-(methyl(2,2,6,6-tetramethyl-piperidin-4-yl)amino)-1,3,4-thiadiazol-2-yl)phenyl)-1-methylpyridin-2(1H)-one]", "values": [
      {"measurement": "EC50", "value": 79, "unit": "nM"},
      {"measurement": "SMN Activity Fold (fold activation over DMSO control)", "value": 2.65, "unit": "fold"}
    ]},
    {"smiles": "COc1nc2ccccc2cc1-c1nnc(N(C)C2CC(C)(C)NC(C)(C)C2)s1", "note": "[Example 3, 5-(2-Methoxyquinolin-3-yl)-N-methyl-N-(2,2,6,6-tetramethylpiperidin-4-yl)-1,3,4-thiadiazol-2-amine]", "values": [
      {"measurement": "EC50", "value": 337, "unit": "nM"},
      {"measurement": "SMN Activity Fold (fold activation over DMSO control)", "value": 2.67, "unit": "fold"}
    ]},
    {"smiles": "COc1cc(-c2cnn(C)c2)ccc1-c1nnc(N2CC3(CCNCC3)C2)s1", "note": "[Example 86, 2-(2-methoxy-4-(1-methyl-1H-pyrazol-4-yl)phenyl)-5-(2,7-diazaspiro[3.5]nonan-2-yl)-1,3,4-thiadiazole]", "values": [
      {"measurement": "EC50", "value": 152, "unit": "nM"},
      {"measurement": "SMN Activity Fold (fold activation over DMSO control)", "value": 2.33, "unit": "fold"}
    ]},
    {"smiles": "COc1cc(-c2cnn(C)c2)ccc1-c1nnc(N(C)C2CC(C)(C)NC(C)(C)C2)s1", "note": "[Example 6, 5-(2-Methoxy-4-(1-methyl-1H-pyrazol-4-yl)phenyl)-N-methyl-N-(2,2,6,6-tetramethylpiperidin-4-yl)-1,3,4-thiadiazol-2-amine]", "values": [
      {"measurement": "EC50", "value": 44, "unit": "nM"},
      {"measurement": "SMN Activity Fold (fold activation over DMSO control)", "value": 2.49, "unit": "fold"}
    ]},
    {"smiles": "CN(c1nnc(-c2ccc(-n3ccc(N)n3)cc2Cl)s1)C1CC(C)(C)NC(C)(C)C1", "note": "[Example 69, 5-(4-(3-amino-1H-pyrazol-1-yl)-2-chlorophenyl)-N-methyl-N-(2,2,6,6-tetramethylpiperidin-4-yl)-1,3,4-thiadiazol-2-amine]", "values": [
      {"measurement": "EC50", "value": 171, "unit": "nM"},
      {"measurement": "SMN Activity Fold (fold activation over DMSO control)", "value": 2.44, "unit": "fold"}
    ]},
    {"smiles": "CN(c1nnc(-c2cc3ccc(O)cc3cc2O)s1)C1CC(C)(C)NC(C)(C)C1", "note": "[Example 20, 3-(5-(Methyl(2,2,6,6-tetramethylpiperidin-4-yl)amino)-1,3,4-thiadiazol-2-yl)naphthalene-2,7-diol]", "values": [
      {"measurement": "EC50", "value": 48, "unit": "nM"},
      {"measurement": "SMN Activity Fold (fold activation over DMSO control)", "value": 2.63, "unit": "fold"}
    ]},
    {"smiles": "CN(c1nnc(-c2c(F)cc(-c3cn[nH]c3)cc2F)s1)C1CC(C)(C)NC(C)(C)C1", "note": "[Example 52, 5-(2,6-difluoro-4-(1H-pyrazol-4-yl)phenyl)-N-methyl-N-(2,2,6,6-tetramethylpiperidin-4-yl)-1,3,4-thiadiazol-2-amine]", "values": [
      {"measurement": "EC50", "value": 61, "unit": "nM"},
      {"measurement": "SMN Activity Fold (fold activation over DMSO control)", "value": 3.30, "unit": "fold"}
    ]},
    {"smiles": "COC(=O)c1ccc(-c2nnc(N(C)C3CC(C)(C)NC(C)(C)C3)s2)c(F)c1", "note": "[Example 35, methyl 3-fluoro-4-(5-(methyl(2,2,6,6-tetramethyl-piperidin-4-yl)amino)-1,3,4-thiadiazol-2-yl) benzoate]", "values": [
      {"measurement": "EC50", "value": 864, "unit": "nM"},
      {"measurement": "SMN Activity Fold (fold activation over DMSO control)", "value": 2.81, "unit": "fold"}
    ]},
    {"smiles": "COc1cc(-c2c(C)n[nH]c2C)ccc1-c1nnc(N(C)C2CC(C)(C)NC(C)(C)C2)s1", "note": "[Example 13, 5-(4-(3,5-Dimethyl-1H-pyrazol-4-yl)-2-methoxy-phenyl)-N-methyl-N-(2,2,6,6-tetramethylpiperidin-4-yl)-1,3,4-thiadiazol-2-amine]", "values": [
      {"measurement": "SMN Activity Fold (fold activation over DMSO control)", "value": "inactive"}
    ]},
    {"smiles": "CN(c1nnc(-c2ccc(-n3ccnc3)cc2Cl)s1)C1CC(C)(C)NC(C)(C)C1", "note": "[Example 71, 5-(2-chloro-4-(1H-imidazol-1-yl)phenyl)-N-methyl-N-(2,2,6,6-tetramethylpiperidin-4-yl)-1,3,4-thiadiazol-2-amine]", "values": [
      {"measurement": "EC50", "value": 32, "unit": "nM"},
      {"measurement": "SMN Activity Fold (fold activation over DMSO control)", "value": 2.40, "unit": "fold"}
    ]},
    {"smiles": "CN1CCC2(CCCN(c3nnc(-c4ccc(-c5cn[nH]c5)cc4Cl)s3)C2)C1", "note": "(stereo not drawn) [Example 83, 2-(2-chloro-4-(1H-pyrazol-4-yl)phenyl)-5-(2-methyl-2,7-diazaspiro[4.5]decan-7-yl)-1,3,4-thiadiazole]", "values": [
      {"measurement": "EC50", "value": 3280, "unit": "nM"},
      {"measurement": "SMN Activity Fold (fold activation over DMSO control)", "value": 2.59, "unit": "fold"}
    ]},
    {"smiles": "CN(c1nnc(-c2c(O)c3ccccc3n(C)c2=O)s1)C1CC(C)(C)NC(C)(C)C1", "note": "[Example 102, 4-hydroxy-1-methyl-3-(5-(methyl(2,2,6,6-tetramethylpiperidin-4-yl)amino)-1,3,4-thiadiazol-2-yl)quinolin-2(1H)-one]", "values": [
      {"measurement": "EC50", "value": 24, "unit": "nM"},
      {"measurement": "SMN Activity Fold (fold activation over DMSO control)", "value": 2.71, "unit": "fold"}
    ]},
    {"smiles": "CN1CC[C@@H]2CN(c3nnc(-c4ccc(-c5cn[nH]c5)cc4Cl)s3)C[C@@H]21", "note": "[Example 81, 2-(2-chloro-4-(1H-pyrazol-4-yl)phenyl)-5-((3aR,6aR)-1-methylhexahydropyrrolo[3,4-b]pyrrol-5(1H)-yl)-1,3,4-thiadiazole]", "values": [
      {"measurement": "EC50", "value": 1540, "unit": "nM"},
      {"measurement": "SMN Activity Fold (fold activation over DMSO control)", "value": 2.38, "unit": "fold"}
    ]},
    {"smiles": "COc1cc(-c2cnn(C)c2)ccc1-c1nnc(N2CC3(CCCNC3)C2)s1", "note": "[Example 85, 2-(2-methoxy-4-(1-methyl-1H-pyrazol-4-yl)phenyl)-5-(2,6-diazaspiro[3.5]nonan-2-yl)-1,3,4-thiadiazole]", "values": [
      {"measurement": "EC50", "value": 282, "unit": "nM"},
      {"measurement": "SMN Activity Fold (fold activation over DMSO control)", "value": 2.22, "unit": "fold"}
    ]},
    {"smiles": "CN(c1nnc(-c2sc3ccccc3c2Cl)s1)C1CC(C)(C)NC(C)(C)C1", "note": "[Example 109, 5-(3-chlorobenzo[b]thiophen-2-yl)-N-methyl-N-(2,2,6,6-tetramethylpiperidin-4-yl)-1,3,4-thiadiazol-2-amine]", "values": [
      {"measurement": "EC50", "value": 534, "unit": "nM"},
      {"measurement": "SMN Activity Fold (fold activation over DMSO control)", "value": 2.75, "unit": "fold"}
    ]},
    {"smiles": "CN(c1nnc(-c2ccc(-c3cn[nH]c3)cc2F)s1)C1CC(C)(C)NC(C)(C)C1", "note": "[Example 76, 5-(2-fluoro-4-(1H-pyrazol-4-yl)phenyl)-N-methyl-N-(2,2,6,6-tetramethylpiperidin-4-yl)-1,3,4-thiadiazol-2-amine]", "values": [
      {"measurement": "EC50", "value": 43, "unit": "nM"},
      {"measurement": "SMN Activity Fold (fold activation over DMSO control)", "value": 3.06, "unit": "fold"}
    ]},
    {"smiles": "CN1C[C@@H]2CN(c3nnc(-c4ccc(-c5cn[nH]c5)cc4Cl)s3)C[C@@H]2C1", "note": "[Example 80, 2-(2-chloro-4-(1H-pyrazol-4-yl)phenyl)-5-((3aR,6aS)-5-methylhexahydropyrrolo[3,4-c]pyrrol-2(1H)-yl)-1,3,4-thiadiazole]", "values": [
      {"measurement": "EC50", "value": 149, "unit": "nM"},
      {"measurement": "SMN Activity Fold (fold activation over DMSO control)", "value": 2.70, "unit": "fold"}
    ]},
    {"smiles": "Clc1cc(-c2cn[nH]c2)ccc1-c1nnc(N2CCC3(CCCNC3)C2)s1", "note": "(stereo not drawn) [Example 106, 2-(2-chloro-4-(1H-pyrazol-4-yl)phenyl)-5-(2,7-diazaspiro[4.5]decan-2-yl)-1,3,4-thiadiazole•Hydrochloride Salt]", "values": [
      {"measurement": "EC50", "value": 1660, "unit": "nM"},
      {"measurement": "SMN Activity Fold (fold activation over DMSO control)", "value": 2.50, "unit": "fold"}
    ]},
    {"smiles": "Oc1cc(-n2cccn2)ccc1-c1nnc(N2CCNCC2)s1", "note": "[Example 30, 2-(5-(piperazin-1-yl)-1,3,4-thiadiazol-2-yl)-5-(1H-pyrazol-1-yl)phenol]", "values": [
      {"measurement": "EC50", "value": 6560, "unit": "nM"},
      {"measurement": "SMN Activity Fold (fold activation over DMSO control)", "value": 1.98, "unit": "fold"}
    ]},
    {"smiles": "CN(c1nnc(-c2c(O)cc(-c3cn[nH]c3)cc2Cl)s1)C1CC(C)(C)NC(C)(C)C1", "note": "[Example 97, 3-chloro-2-(5-(methyl(2,2,6,6-tetramethylpiperidin-4-yl)amino)-1,3,4-thiadiazol-2-yl)-5-(1H-pyrazol-4-yl)phenol]", "values": [
      {"measurement": "SMN Activity Fold (fold activation over DMSO control)", "value": 2.45, "unit": "fold"}
    ]},
    {"smiles": "CN(c1nnc(-c2c(O)cc(-c3cnn(C)c3)cc2Cl)s1)C1CC(C)(C)NC(C)(C)C1", "note": "[Example 26, 3-Chloro-2-(5-(methyl(2,2,6,6-tetramethylpiperidin-4-yl)amino)-1,3,4-thiadiazol-2-yl)-5-(1-methyl-1H-pyrazol-4-yl)phenol]", "values": [
      {"measurement": "SMN Activity Fold (fold activation over DMSO control)", "value": 2.26, "unit": "fold"}
    ]}
  ]
}
